Laboratory results: article PMC6868087, “Exploiting Curcumin Synergy With Natural Products Using Quantitative Analysis of Dose–Effect Relationships in an Experimental In Vitro Model of Osteoarthritis” (Frontiers in Pharmacology, 2019)
pIC50: −log10 of the molar value. Like-named read-outs stand apart in the source and are kept apart here.

Experiments:
[1] = system: STAT3 mRNA expression; assay: STAT3 mRNA expression by RTqPCR in LPS-stimulated chondrocytes; format: cell-based, human; conditions: IC50 doses
Protocol: (§1) Human articular chondrocytes (ScienCell, CA, USA) were cultured in the specific Chondrocyte Medium (Cat. 4651; ScienCell, CA, USA) supplemented with 1% antibiotic mixture, in 5% CO2 humidified incubator at 37°C. The medium was renewed every 2 days and confluent chondrocytes were trypsinized, subdivided, and re-plated. In these experiments chondrocytes from passage 3 to 7 were used. Chondrocytes were cultured in six well culture plates at a density of 2.5 × 10^5 cells/well. Sixteen hours after seeding, a set of plates were treated with LPS (2 μg/ml; Escherichia coli serotype 055:B5; […] Total RNA was isolated from human chondrocytes for RTqPCR analysis using Trizol Reagent Kit (Life Technologies, Monza, Italy). […] The amplified PCR products were quantified by measuring the calculated cycle thresholds (CT) of targets and β-actin mRNA. The amounts of specific mRNA in samples were calculated using the 2^-ΔΔCT method. The mean value of investigated mRNA levels in LPS or IL-1β-stimulated chondrocytes was chosen as the calibrator, and the results are expressed as % of reduction compared to LPS or IL-1β controls. The IC50 value was calculated by fitting the progress curves to the four-parameter IC50 equation using GraphPad prism software version 5.03 (Graphpad software, CA, USA). […]

[2] = system: Human articular chondrocytes; assay: MTT assay, cell viability of chondrocytes; format: cell-based; conditions: IC50 concentrations, 24 h
Protocol: Human articular chondrocytes (ScienCell, CA, USA) were cultured in the specific Chondrocyte Medium (Cat. 4651; ScienCell, CA, USA) supplemented with 1% antibiotic mixture, in 5% CO2 humidified incubator at 37°C. The medium was renewed every 2 days and confluent chondrocytes were trypsinized, subdivided, and re-plated. In these experiments chondrocytes from passage 3 to 7 were used. Cell viability was evaluated by MTT assay. Chondrocytes were grown and then treated with IC50 doses when reached confluence. In particular, flavocoxid, curcumin, flavocoxid + curcumin, β-caryophyllene, and β-caryophyllene + curcumin were tested in a 96-well plate at a density of 8 × 10^4 cells/well for 24 h to evaluate the cytotoxic effect. The tetrazolium dye MTT 3-(4,5-dimethylthiazol-2-yl)-2,5-diphenyltetrazolium bromide (Sigma Aldrich, Milan, Italy) was dissolved in sterile filtered PBS, and 20 µl of the mixture were added into each well 5 h before the end of the 24 h of incubation. Medium was removed and the insoluble formazan crystals were dissolved with dimethyl sulfoxide (DMSO; 200 µl/well) following 5 h. The difference between the values obtained at 540 and 620 nm of absorbance was used to calculate the average of replicates and to evaluate cytotoxicity. Results were expressed as % of cell viability compared to untreated cells and reported as means and SD.

[3] = matrix not stated; no reference given; cited from earlier work
[4] = system: IL-1β mRNA expression; assay: IL-1β mRNA expression (RTqPCR) in LPS-stimulated human articular chondrocytes; Chou-Talalay median-effect and combination index analysis; format: cell-based; conditions: Chondrocyte, 4 h, LPS 2 µg/ml
Protocol: Human articular chondrocytes (ScienCell, CA, USA) were cultured in the specific Chondrocyte Medium (Cat. 4651; ScienCell, CA, USA) supplemented with 1% antibiotic mixture, in 5% CO2 humidified incubator at 37°C. The medium was renewed every 2 days and confluent chondrocytes were trypsinized, subdivided, and re-plated. In these experiments chondrocytes from passage 3 to 7 were used. Chondrocytes were cultured in six well culture plates at a density of 2.5 × 10^5 cells/well. Sixteen hours after seeding, a set of plates were treated with LPS (2 µg/ml; Escherichia coli serotype 055:B5; […] Total RNA was isolated from human chondrocytes for RTqPCR analysis using Trizol Reagent Kit (Life Technologies, Monza, Italy). […] RTqPCR was performed on both targets and endogenous control using SYBR Premix DimerEraser (Takara, Japan) and QuantStudio 6 Flex Real-Time PCR System (Applied Biosystems, CA, USA). The amplified PCR products were quantified by measuring the calculated cycle thresholds (CT) of targets and β-actin mRNA. The amounts of specific mRNA in samples were calculated using the 2^-ΔΔCT method. The mean value of investigated mRNA levels in LPS or IL-1β-stimulated chondrocytes was chosen as the calibrator, and the results are expressed as % of reduction compared to LPS or IL-1β controls. The IC50 value was calculated by fitting the progress curves to the four-parameter IC50 equation using GraphPad prism software version 5.03 (Graphpad software, CA, USA). Chou and Talalay multiple drug effect analysis was performed and it is based on the median-effect principle ([Chou and Talalay, 1984]; [Chou, 2006]). The Median Effect Equation states that fa/fu = (D/Dm) m, where D is the dose, fa and fu are the affected and the unaffected fractions, respectively, of IL-1β mRNA expression levels, by the dose D; Dm is the dose required to produce the median effect (i.e., IC50), and m is the Hill-type coefficient signifying the sigmoidicity of the dose–effect curve. […] The CI was calculated as: CI=[(D)1/(D50)1]+[(D) 2/(D50)2 […] The CI index was calculated using Grafit software.

[5] = system: COL2A1 mRNA expression; assay: COL2A1 (type II collagen) mRNA expression by RTqPCR in chondrocytes stimulated with LPS or IL-1β; format: cell-based, human; conditions: IC50 doses
Protocol: as §1

[6] = system: NF-κB mRNA expression; assay: NF-κB mRNA expression by RTqPCR in LPS-stimulated chondrocytes; format: cell-based, human; conditions: IC50 doses
Protocol: as §1

[7] = curcumin/β-caryophyllene experiment, combination molar ratio 3.6:1, read-out: IC50, reduction of IL-1β mRNA

SMILES	STAT3 mRNA expression [1]	Cell viability (cytotoxic effect), MTT [2]	half-life [3]	pIC50 ([4]; curcumin/flavocoxid experiment, combination molar ratio 7.3:1, read-out: IC50, reduction of IL-1β mRNA)	pIC50 [4, 7]	COL2A1 (type II collagen) mRNA expression [5]	NF-κB mRNA expression [6]
COc1cc(/C=C/C(=O)CC(=O)/C=C/c2ccc(O)c(OC)c2)ccc1O [curcumin]	reduced	did not affect chondrocytes viability	about 3 h	4.85	4.87	partially able to restore the mRNA control levels	reduced
C=C1CC/C=C(\C)CC[C@@H]2[C@@H]1CC2(C)C [β-caryophyllene]	reduced	did not affect chondrocytes viability			4.31	partially able to restore the mRNA control levels	reduced
